Data set [1] is described as follows: Determination of the microsomal half-life, human liver microsomes. The settings on record: human, liver microsomes, pH 7.4. (In general: Liver microsomes are a subcellular fraction often used to study metabolism.)
Data set [2] can be described thus: Determination of the microsomal half-life, rat liver microsomes. The conditions noted are these: rat, liver microsomes, pH 7.4.
Another data set addresses T1, PDE10A (human) (Homo sapiens, UniProt Q9Y233).
T1 construct: purchased BPS Bioscience
Nature of the data set: Measurement of PDE activity (HTRF cAMP kit), human PDE10A. The settings on record: PDE enzymatic reaction, substrate 20 nM for PDE10, 60 minutes at 29 C. The class given is biochemical. An outline of the steps: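 HTRF detection of cAMP left after hydrolysis, expressed as percent of uninhibited control to derive IC50. Reaction: serially diluted inhibitor mixed with recombinant enzyme, started with 20 nM cAMP, 60 min at 29 °C in Tris-HCl pH 7.5 buffer containing MgCl2 and BSA.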
A general note: Time-resolved FRET reads energy transfer from a long-lived donor to a nearby acceptor.

The values that follow come from patent US9938269B2, “Inhibitor compounds of phosphodiesterase type 10A” (ABBVIE INC., priority 2011, dated 2018).

In general, microsomal CLint refers to the rate of metabolic loss divided by the concentration. A high value points to rapid turnover. Broadly, the IC50 is the midpoint of a concentration-inhibition curve. Read a high IC50 as lower potency.

Where a name gives a salt, the structure may show the parent alone. A value given as a limit tells only on which side of the number the result lay.

T1 sequence (Q9Y233 whole entry): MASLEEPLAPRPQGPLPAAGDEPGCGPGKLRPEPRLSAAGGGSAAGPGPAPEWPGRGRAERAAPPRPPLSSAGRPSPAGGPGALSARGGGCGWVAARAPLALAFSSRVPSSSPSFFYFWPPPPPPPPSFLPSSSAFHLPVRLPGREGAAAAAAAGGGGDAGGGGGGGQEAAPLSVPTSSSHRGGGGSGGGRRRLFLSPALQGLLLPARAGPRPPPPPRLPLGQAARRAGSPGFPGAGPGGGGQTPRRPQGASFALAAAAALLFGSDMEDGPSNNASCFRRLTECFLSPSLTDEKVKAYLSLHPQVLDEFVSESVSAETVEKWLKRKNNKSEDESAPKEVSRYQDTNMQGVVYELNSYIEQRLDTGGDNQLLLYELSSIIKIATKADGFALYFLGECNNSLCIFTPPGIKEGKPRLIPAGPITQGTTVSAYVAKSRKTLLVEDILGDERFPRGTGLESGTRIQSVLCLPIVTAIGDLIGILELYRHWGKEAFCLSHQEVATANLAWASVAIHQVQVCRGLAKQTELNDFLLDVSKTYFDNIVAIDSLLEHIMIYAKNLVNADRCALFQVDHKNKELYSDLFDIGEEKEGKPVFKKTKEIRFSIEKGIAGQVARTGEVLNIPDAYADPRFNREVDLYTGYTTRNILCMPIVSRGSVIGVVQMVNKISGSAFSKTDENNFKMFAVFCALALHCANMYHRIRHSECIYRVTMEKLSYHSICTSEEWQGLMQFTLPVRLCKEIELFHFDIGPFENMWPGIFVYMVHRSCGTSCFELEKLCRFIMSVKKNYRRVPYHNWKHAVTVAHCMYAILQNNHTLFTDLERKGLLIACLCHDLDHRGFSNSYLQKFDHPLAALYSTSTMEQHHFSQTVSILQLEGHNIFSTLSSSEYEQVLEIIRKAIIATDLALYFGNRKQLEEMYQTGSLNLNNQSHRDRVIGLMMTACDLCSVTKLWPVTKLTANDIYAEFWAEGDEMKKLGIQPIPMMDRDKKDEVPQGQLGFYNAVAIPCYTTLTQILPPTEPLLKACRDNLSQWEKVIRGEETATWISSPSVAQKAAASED

`Cn1nccc1-c1cccc2c1C(=O)N(CCc1nc3ccccc3[nH]1)C2` [Example 313, 2-[2-(1H-Benzoimidazol-2-yl)-ethyl]-7-(2-methyl-2H-pyrazol-3-yl)-2,3-dihydro-isoindol-1-one trifluoroacetate]: the microsomal CLint at 0.5 μM in data set [1] and in data set [2] was less than 100 µL/min/mg throughout. This compound also showed an IC50 at PDE10A (human) of 0.2 to 0.5 µM.

For the compound `O=C1c2cccc(N3CCS(=O)(=O)CC3)c2CN1CCc1ccc2ccccc2n1` [Example 131, 4-(1,1-Dioxo-1-thiomorpholin-4-yl)-2-(2-quinolin-2-yl-ethyl)-2,3-dihydro-isoindol-1-one], the microsomal CLint at 0.5 μM in data set [1] and in data set [2] was less than 100 µL/min/mg throughout. In addition, the IC50 on PDE10A (human) fell in the range of 0.2 to 0.5 µM.

Regarding `Cc1cccnc1CCN1Cc2nccc(N3CCOCC3)c2C1=O` [compound 522, 6-[2-(3-Methyl-2-pyridyl)ethyl]-4-morpholino-7H-pyrrolo[3,4-b]pyridin-5-one], the microsomal CLint at 0.5 μM in data set [1] and in data set [2] was less than 100 µL/min/mg each time. Besides, the IC50 against PDE10A (human) was in the range of 0.1 to 0.2 µM.

In the case of `Cc1ccc2c(c1)nc(CCN1Cc3nccc(-c4cccnc4)c3C1=O)n2C` [compound 539, 6-[2-(1,5-Dimethylbenzimidazol-2-yl)ethyl]-4-(3-pyridyl)-7H-pyrrolo[3,4-b]pyridin-5-one], the microsomal CLint at 0.5 μM in data set [1] and in data set [2] was less than 100 µL/min/mg in each case. At PDE10A (human), this compound yielded an IC50 of less than 0.1 µM.

Consider `COc1ccc(-c2cccnc2)c2c1CN(CCc1ccc3ccccc3n1)C2=O` [Example 185, 4-Methoxy-7-pyridin-3-yl-2-(2-quinolin-2-yl-ethyl)-2,3-dihydro-isoindol-1-one trifluoroacetate], for which the results for the microsomal CLint at 0.5 μM in data set [1] and in data set [2] were greater than 220 µL/min/mg and 100 to 220 µL/min/mg, respectively. Besides, the IC50 against PDE10A (human) was less than 0.1 µM.

Take `O=C1c2c(-c3cncnc3)ccnc2CN1CCc1cn2ccccc2n1` [Example 256, 6-(2-Imidazo[1,2-a]pyridin-2-yl-ethyl)-4-pyrimidin-5-yl-6,7-dihydro-pyrrolo[3,4-b]pyridin-5-one]: the intrinsic clearance (microsomal CLint) at 0.5 μM in data set [1] and in data set [2] was less than 100 µL/min/mg throughout. The same compound returned an IC50 at PDE10A (human) of less than 0.1 µM.

Turning to `O=C1c2c(-c3ccncc3)ccnc2CN1CCc1ccc2ncccc2n1` [compound 512, 6-[2-(1,5-Naphthyridin-2-yl)ethyl]-4-(4-pyridyl)-7H-pyrrolo[3,4-b]pyridin-5-one], the microsomal CLint at 0.5 μM in data set [1] and in data set [2] was less than 100 µL/min/mg in each case. Also, the IC50 against PDE10A (human) is less than 0.1 µM.

For the compound `Cc1ccc2c(c1)nc(CCN1Cc3cccc(N4CCOCC4)c3C1=O)n2C` [Example 306, 2-[2-(1,5-Dimethyl-1H-benzoimidazol-2-yl)-ethyl]-7-morpholin-4-yl-2,3-dihydro-isoindol-1-one trifluoroacetate], the microsomal CLint at 0.5 μM in data set [1] is 100 to 220 µL/min/mg; in data set [2], less than 100 µL/min/mg. The compound further registered an IC50 on PDE10A (human) of less than 0.1 µM.

With `O=C1c2c(cccc2-c2ccc3nc[nH]c3c2)CN1CCc1ccc2ccccc2n1` [Example 11, 7-(3H-Benzoimidazol-5-yl)-2-(2-quinolin-2-yl-ethyl)-2,3-dihydro-isoindol-1-one trifluoroacetate], the microsomal CLint at 0.5 μM in data set [1] and in data set [2] was less than 100 µL/min/mg throughout. In addition, the IC50 against PDE10A (human) is less than 0.1 µM.

Regarding `Cn1nccc1-c1ccnc2c1C(=O)N(CCc1nc3ccccc3n1C)C2` [Example 214, 6-[2-(1-Methyl-1H-benzoimidazol-2-yl)-ethyl]-4-(2-methyl-2H-pyrazol-3-yl)-6,7-dihydro-pyrrolo[3,4-b]pyridin-5-one], the microsomal CLint at 0.5 μM in data set [1] and in data set [2] was less than 100 µL/min/mg in each case. Further, the IC50 against PDE10A (human) lay in the range of 0.1 to 0.2 µM.

Consider `COc1ccc(-c2ccnn2C)c2c1CN(CCc1cn3ccccc3n1)C2=O` [Example 373, 2-(2-Imidazo[1,2-a]pyridin-2-yl-ethyl)-4-methoxy-7-(2-methyl-2H-pyrazol-3-yl)-2,3-dihydro-isoindol-1-one], for which the microsomal CLint at 0.5 μM in data set [1] and in data set [2] was less than 100 µL/min/mg in each case. On PDE10A (human), the IC50 was less than 0.1 µM.

`COc1ccc(-c2ccncc2)c2c1C(=O)N(CCc1nc3ccccc3s1)C2` [compound 396, 2-[2-(1,3-Benzothiazol-2-yl)ethyl]-7-methoxy-4-(4-pyridyl)isoindolin-1-one]: the microsomal CLint at 0.5 μM in data set [1] is less than 100 µL/min/mg; in data set [2] it was 100 to 220 µL/min/mg. The same compound returned a half-maximal inhibitory concentration (IC50) at PDE10A (human) of less than 0.1 µM.

Consider `Cn1c(CCN2Cc3nccc(-c4cccnc4)c3C2=O)nc2ccccc21` [Example 368, 6-[2-(1-Methyl-1H-benzoimidazol-2-yl)-ethyl]-4-pyridin-3-yl-6,7-dihydro-pyrrolo[3,4-b]pyridin-5-one], for which the microsomal CLint at 0.5 μM in data set [1] and in data set [2] was less than 100 µL/min/mg each time. The IC50 at PDE10A (human) is less than 0.1 µM.

Turning to `COc1ccc(-c2ccc(F)c3c2C(=O)N(CCc2cn4ccccc4n2)C3)cc1` [Example 380, 4-Fluoro-2-(2-imidazo[1,2-a]pyridin-2-yl-ethyl)-7-(4-methoxy-phenyl)-2,3-dihydro-isoindol-1-one], the microsomal CLint at 0.5 μM in data set [1] is 100 to 220 µL/min/mg; in data set [2], greater than 220 µL/min/mg. Further, on PDE10A (human), the IC50 lay in the range of 0.2 to 0.5 µM.

Consider `Nc1ncc2cc(-c3cccc4c3C(=O)N(CCc3ccc5ccccc5n3)C4)ccc2n1` [Example 12, 7-(2-Amino-quinazolin-6-yl)-2-(2-quinolin-2-yl-ethyl)-2,3-dihydro-isoindol-1-one], for which the microsomal CLint at 0.5 μM in data set [1] and in data set [2] was 100 to 220 µL/min/mg each time. The same compound displayed an IC50 against PDE10A (human) of less than 0.1 µM.

On to `O=C1c2c(N3CCOCC3)ccnc2CN1CCc1cn2cc(F)ccc2n1` [compound 493, 6-[2-(6-Fluoroimidazo[1,2-a]pyridin-2-yl)ethyl]-4-morpholino-7H-pyrrolo[3,4-b]pyridin-5-one trifluoroacetate], for which the microsomal CLint at 0.5 μM in data set [1] and in data set [2] was less than 100 µL/min/mg each time. This compound had an IC50 against PDE10A (human) of less than 0.1 µM.

Take `O=C1c2c(N3CCOCC3)ccnc2CN1CCc1ccccn1` [compound 550, 4-Morpholino-6-[2-(2-pyridyl)ethyl]-7H-pyrrolo[3,4-b]pyridin-5-one]: the microsomal CLint at 0.5 μM in data set [1] and in data set [2] was less than 100 µL/min/mg each time. On PDE10A (human), this compound returned an IC50 of 0.2 to 0.5 µM.

For the compound `Cc1ccc(CCN2Cc3nccc(-c4ccncc4)c3C2=O)nc1` [compound 481, 6-[2-(5-Methyl-2-pyridyl)ethyl]-4-(4-pyridyl)-7H-pyrrolo[3,4-b]pyridin-5-one trifluoroacetate], the microsomal CLint at 0.5 μM in data set [1] and in data set [2] was less than 100 µL/min/mg in each case. The compound further showed an IC50 at PDE10A (human) of 0.2 to 0.5 µM.

As to `COc1ccc(-c2cncnc2)c2c1CN(CCc1cn3ccccc3n1)C2=O` [Example 217, 2-(2-Imidazo[1,2-a]pyridin-2-yl-ethyl)-4-methoxy-7-pyrimidin-5-yl-2,3-dihydro-isoindol-1-one trifluoroacetate], the microsomal CLint at 0.5 μM in data set [1] and in data set [2] was less than 100 µL/min/mg each time. The same compound gave a half-maximal inhibitory concentration (IC50) at PDE10A (human) of less than 0.1 µM.

On to `O=C1c2c(-c3ccncc3)ccnc2CN1CCc1nc2ccc(F)cc2s1` [compound 402, 6-[2-(6-Fluoro-1,3-benzothiazol-2-yl)ethyl]-4-(4-pyridyl)-7H-pyrrolo[3,4-b]pyridin-5-one], for which the microsomal CLint at 0.5 μM in data set [1] and in data set [2] was 100 to 220 µL/min/mg in each case. Also, the IC50 at PDE10A (human) was less than 0.1 µM.

For `O=C1c2c(N3CCC(C(F)F)C3)ccnc2CN1CCc1nc2ccccc2s1` (stereo not drawn) [compound 385, 6-[2-(1,3-Benzothiazol-2-yl)ethyl]-4-[3-(difluoromethyl)pyrrolidin-1-yl]-7H-pyrrolo[3,4-b]pyridin-5-one], the microsomal CLint at 0.5 μM in data set [1] and in data set [2] was 100 to 220 µL/min/mg in each case. In addition, the IC50 against PDE10A (human) is less than 0.1 µM.

For the compound `COc1ccc2nc(CCN3Cc4cccc(N5CCOCC5)c4C3=O)ccc2c1` [Example 116, 2-[2-(6-Methoxy-quinolin-2-yl)-ethyl]-7-morpholin-4-yl-2,3-dihydro-isoindol-1-one hydrochloride], the microsomal CLint at 0.5 μM is 100 to 220 µL/min/mg in data set [1] and less than 100 µL/min/mg in data set [2]. The same compound had a 50% inhibitory concentration (IC50) against PDE10A (human) of less than 0.1 µM.

With `Cc1ccc2c(c1)nc(CCN1Cc3nccc(-c4cncnc4)c3C1=O)n2C` [compound 535, 6-[2-(1,5-Dimethyl-1H-benzoimidazol-2-yl)-ethyl]-4-pyrimidin-5-yl-6,7-dihydro-pyrrolo[3,4-b]pyridin-5-one], the microsomal CLint at 0.5 μM in data set [1] and in data set [2] was less than 100 µL/min/mg in each case. This compound also returned an IC50 at PDE10A (human) of less than 0.1 µM.

`O=C1c2c(-c3cn[nH]c3)ccnc2CN1CCc1cn2ccccc2n1` [Example 365, 6-(2-Imidazo[1,2-a]pyridin-2-yl-ethyl)-4-(1H-pyrazol-4-yl)-6,7-dihydro-pyrrolo[3,4-b]pyridin-5-one]: the figures for the microsomal CLint at 0.5 μM in data set [1] and in data set [2] were less than 100 µL/min/mg and 100 to 220 µL/min/mg, respectively. Moreover, the IC50 against PDE10A (human) was less than 0.1 µM.

Take `Cc1ncccc1COc1cccc2c1C(=O)N(CCc1ccc3ccccc3n1)C2` [Example 179, 7-(2-Methyl-pyridin-3-ylmethoxy)-2-(2-quinolin-2-yl-ethyl)-2,3-dihydro-isoindol-1-one]: the values for the microsomal CLint at 0.5 μM in data set [1] and in data set [2] were greater than 220 µL/min/mg and 100 to 220 µL/min/mg, respectively. Besides, the IC50 on PDE10A (human) is less than 0.1 µM.

`CCc1ccn2cc(CCN3Cc4nccc(-c5ccncc5)c4C3=O)nc2c1` [compound 552, 6-[2-(7-Ethylimidazo[1,2-a]pyridin-2-yl)ethyl]-4-(4-pyridyl)-7H-pyrrolo[3,4-b]pyridin-5-one]: the microsomal CLint at 0.5 μM in data set [1] was less than 100 µL/min/mg; in data set [2] it was 100 to 220 µL/min/mg. The IC50 on PDE10A (human) was less than 0.1 µM.
